{"source": "patent US12077503B2", "about": "“Substituted cyclic amides and their use as herbicides” (FMC CORPORATION, priority 2015, dated 2024)", "assay_type_in_all_cases": "in vivo", "key": {"[1]": {"tested_on": "barnyardgrass (Echinochloa crus-galli)", "test": "Test B flooded paddy test", "conditions": "Flood, 250 g ai/ha; 0 to 100 scale where 0 is no effect and 100 is complete control; 13 to 15 d", "in_short": "(§1)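 Visual ratings (0 none to 100 complete control) are relative to untreated plants, taken 13–15 d after treatment in a greenhouse. Test material went straight into floodwater standing 3 cm above the soil, kept constant, on plants at the 2-leaf stage.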"}, "[2]": {"tested_on": "ducksalad (Heteranthera limosa)", "test": "Test B flooded paddy test", "conditions": "Flood, 250 g ai/ha; 0 to 100 scale where 0 is no effect and 100 is complete control; 13 to 15 d", "in_short": "as §1"}, "rice (Oryra sativa)": {"tested_on": "rice (Oryra sativa)", "test": "Test B flooded paddy test", "conditions": "Flood, 250 g ai/ha; 0 to 100 scale where 0 is no effect and 100 is complete control; 13 to 15 d", "in_short": "as §1"}, "[3]": {"tested_on": "sedge, umbrella (small-flower umbrella sedge, Cyperus difformis)", "test": "Test B flooded paddy test", "conditions": "Flood, 250 g ai/ha; 0 to 100 scale where 0 is no effect and 100 is complete control; 13 to 15 d", "in_short": "as §1"}, "[4]": {"tested_on": "ryegrass, Italian (Italian ryegrass, Lolium multiflorum)", "test": "Test A preemergence", "in_short": "(§2)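 Preemergence soil spray on seeded pots or post-emergence spray on 1–2 leaf plants, in loam–sand blend. Greenhouse ~10 d. Visual rating 0–100 against untreated plants.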"}, "[5]": {"tested_on": "barnyardgrass (Echinochloa crus-galli)", "test": "Test A preemergence", "in_short": "as §2"}, "[6]": {"tested_on": "pigweed (Amaranthus retroflexus)", "test": "Test A preemergence"}, "[7]": {"tested_on": "ragweed (common ragweed, Ambrosia elatior)", "test": "Test A preemergence", "in_short": "as §2"}, "[8]": {"tested_on": "giant foxtail (Setaria faberii)", "test": "Test A preemergence", "in_short": "as §2"}, "Kochia (Kochia scoparia) [9]": {"tested_on": "Kochia (Kochia scoparia)", "test": "Test A preemergence", "in_short": "as §2"}, "[10]": {"tested_on": "ryegrass, Italian (Italian ryegrass, Lolium multiflorum)", "test": "Test A postemergence", "conditions": "postemergence, 0 to 100 scale (0 no effect, 100 complete control)", "in_short": "as §2"}, "[11]": {"tested_on": "barnyardgrass (Echinochloa crus-galli)", "test": "Test A postemergence", "in_short": "as §2"}, "[12]": {"tested_on": "pigweed (Amaranthus retroflexus)", "test": "Test A postemergence", "conditions": "postemergence, 0 to 100 scale (0 no effect, 100 complete control)", "in_short": "as §2"}, "[13]": {"tested_on": "wheat (Triticum aestivum)", "test": "Test A postemergence", "conditions": "postemergence, 0 to 100 scale (0 no effect, 100 complete control)", "in_short": "as §2"}, "[14]": {"tested_on": "ragweed (common ragweed, Ambrosia elatior)", "test": "Test A postemergence", "conditions": "postemergence, 0 to 100 scale (0 no effect, 100 complete control)", "in_short": "as §2"}, "corn (Zea mays)": {"tested_on": "corn (Zea mays)", "test": "Test A postemergence", "in_short": "as §2"}, "[15]": {"tested_on": "blackgrass (Alopecurus myosuroides)", "test": "Test A postemergence", "in_short": "as §2"}, "[16]": {"tested_on": "giant foxtail (Setaria faberii)", "test": "Test A postemergence", "conditions": "postemergence, 0 to 100 scale (0 no effect, 100 complete control)", "in_short": "as §2"}, "[17]": {"tested_on": "Galium (catchweed bedstraw, Galium aparine)", "test": "Test A postemergence", "conditions": "postemergence, 0 to 100 scale (0 no effect, 100 complete control)", "in_short": "as §2"}, "Kochia (Kochia scoparia) [18]": {"tested_on": "Kochia (Kochia scoparia)", "test": "Test A postemergence", "conditions": "postemergence, 0 to 100 scale (0 no effect, 100 complete control)", "in_short": "as §2"}, "[19]": {"conditions": "125 g ai/ha, Preemergence, visual injury after approximately 10 d, 0 to 100 scale where 0 is no effect and 100 is complete control"}, "[20]": {"conditions": "500 g ai/ha, preemergence, 0 to 100 scale, 0 = no effect, 100 = complete control"}, "[21]": {"conditions": "125 g ai/ha, visual rating after approx. 10 d"}, "[22]": {"conditions": "500 g ai/ha, visual injury, approx. 10 d"}, "[23]": {"conditions": "125 g ai/ha, postemergence, visual rating after approx. 10 d, 0 to 100 scale (0 no effect, 100 complete control)"}, "[24]": {"conditions": "Postemergence, 500 g ai/ha, 0 to 100 scale where 0 is no effect and 100 is complete control"}}}
{"smiles": "Cc1cc(C2CNC(=O)C2C(=O)Nc2ccccc2F)cs1", "note": "(stereo not drawn) [Compound 630]", "values": [{"measurement": "Plant response rating, Barnyardgrass", "setting": "[1]", "value": 20}, {"measurement": "Plant response rating, Ducksalad", "setting": "[2]", "value": 95}, {"measurement": "Plant response rating, Rice", "setting": "rice (Oryra sativa)", "value": 0}, {"measurement": "Plant response rating, Sedge, Umbrella", "setting": "[3]", "value": 0}, {"measurement": "Plant response rating, Ryegrass, Italian", "setting": "[4]; [19]", "value": 0}, {"measurement": "Plant response rating, Ryegrass, Italian", "setting": "[4]; [20]", "value": 20}, {"measurement": "Plant response rating, Barnyardgrass", "setting": "[5]; [19]", "value": 90}, {"measurement": "Plant response rating, Barnyardgrass", "setting": "[5]; [20]", "value": 90}, {"measurement": "Plant response rating, Pigweed", "setting": "[6]; [19]", "value": 0}, {"measurement": "Plant response rating, Pigweed", "setting": "[6]; [20]", "value": 0}, {"measurement": "Plant response rating, Ragweed", "setting": "[7]; [19]", "value": 0}, {"measurement": "Plant response rating, Ragweed", "setting": "[7]; [20]", "value": 30}, {"measurement": "Plant response rating, Foxtail, Giant", "setting": "[8]; [19]", "value": 80}, {"measurement": "Plant response rating, Foxtail, Giant", "setting": "[8]; [20]", "value": 90}, {"measurement": "Plant response rating, Kochia", "setting": "Kochia (Kochia scoparia) [9]; [19]", "value": 0}, {"measurement": "Plant response rating, Kochia", "setting": "Kochia (Kochia scoparia) [9]; [20]", "value": 50}, {"measurement": "Plant response rating, Ryegrass, Italian", "setting": "[10]; [21]", "value": 0}, {"measurement": "Plant response rating, Ryegrass, Italian", "setting": "[10]; [22]", "value": 0}, {"measurement": "Plant response rating, Barnyardgrass", "setting": "[11]; [23]", "value": 80}, {"measurement": "Plant response rating, Barnyardgrass", "setting": "[11]; [24]", "value": 90}, {"measurement": "Plant response rating, Pigweed", "setting": "[12]; [21]", "value": 0}, {"measurement": "Plant response rating, Pigweed", "setting": "[12]; [22]", "value": 0}, {"measurement": "Plant response rating, Wheat", "setting": "[13]; [21]", "value": 0}, {"measurement": "Plant response rating, Wheat", "setting": "[13]; [22]", "value": 20}, {"measurement": "Plant response rating, Ragweed", "setting": "[14]; [21]", "value": 0}, {"measurement": "Plant response rating, Ragweed", "setting": "[14]; [22]", "value": 0}, {"measurement": "Plant response rating, Corn", "setting": "corn (Zea mays); [23]", "value": 0}, {"measurement": "Plant response rating, Corn", "setting": "corn (Zea mays); [24]", "value": 20}, {"measurement": "Plant response rating, Blackgrass", "setting": "[15]; [23]", "value": 0}, {"measurement": "Plant response rating, Blackgrass", "setting": "[15]; [24]", "value": 20}, {"measurement": "Plant response rating, Foxtail, Giant", "setting": "[16]; [21]", "value": 30}, {"measurement": "Plant response rating, Foxtail, Giant", "setting": "[16]; [22]", "value": 30}, {"measurement": "Plant response rating, Galium", "setting": "[17]; [21]", "value": 0}, {"measurement": "Plant response rating, Galium", "setting": "[17]; [22]", "value": 40}, {"measurement": "Plant response rating, Kochia", "setting": "Kochia (Kochia scoparia) [18]; [21]", "value": 0}, {"measurement": "Plant response rating, Kochia", "setting": "Kochia (Kochia scoparia) [18]; [22]", "value": 0}]}
